Measured values taken from patent US12708620B2, “Prodrugs and medical uses thereof” (priority 2018, dated 2026).
Read-outs that look alike come from different tables or passages of the source.

How the values were obtained:
[1] = stability to gamma irradiation sterilization; settings: powder filled vial sterilized under gamma irradiation
BT-474 = experiment: resazurin-based potency assay, normoxia vs anoxia; assay type: cell-based, human; settings: for IC50: Homo sapiens, 4 h exposure then 96 h
Protocol: (§1) The IC50 values were obtained using the resazurin-based potency assay under anoxic (<0.01% O2) and/or normoxic conditions (21% O2). The hypoxia cytotoxicity ratio (HCR) is calculated as the ratio of IC50 value […] (HCR=IC50 normoxia/IC50 anoxia).
(§2) For anoxic condition, the complete medium for each cell line (25 ml in a T25 or 80 ml in a T80) was equilibrated in the anoxic chamber 48 h before use to allow an as large as possible interchange between media and atmosphere, agitating the flask once a day and just before use. The 96-well plates for cell seeding and the 96-well plates for preparation of a mother plate containing the compound to be tested (e.g. Cpd.11 Ms) at appropriate concentrations as well as disposable reagent reservoirs and pipet tips that are required for cell seeding under anoxic conditions were placed in anoxia at least 72 h before use. The mother plate for treatment of the cells under anoxia was prepared with anoxic medium and in anoxia pre-incubated plastics, the mother plate for treatment of the cells in normoxia was prepared with normoxic medium in a standard cell culture hood.
(§3) Cell seeding was performed starting from a cell suspension (70% confluent flasks of cells). Appropriate cell numbers/volumes were used at the pre-determined cell density (typically 100 μl/well) as determined by performing a growth curve experiment were calculated. For anoxic conditions, the appropriate number of cells was transferred to the anoxic chamber and diluted to the appropriate cell concentration in anoxic complete medium. The cells were allowed to adhere for 2 hours in the anoxic chamber at 37° C. In normoxic conditions, usual cell seeding and complete medium protocols were used (in a volume of 100 μl/well in 96-well plates). The cells were allowed to adhere for 2 hours at 37° C. in a regular cell culture CO2 incubator. In both conditions, the remaining empty wells in 96-well plates were filled with 200 μl anoxic or normoxic medium to prevent evaporation.
(§4) Fresh Cpd.11 Ms stock solution was thawed just before the experiment and shielded from the light. A 96-well microtiter plate was filled with 176.4 μl of complete normoxic (RT) or anoxic medium in the first column and 120 μl of complete normoxic or anoxic medium with 2% DMSO for the other columns of wells. 3.6 μl per well of the compound stock solution (Cpd.11, Cpd.11 Ms, Cpd.11c, or Cpd.11d; 150 mM) was added to the first column. The solution of the first column was pipetted up and down and 60 μl was transferred to the second column to perform 1/3 serial dilutions pipetting up and down 3 times between each transfer. This was repeated until the 11th column. No Cpd.11 Ms was added to the 12th column. The plate was prepared no longer than 30 minutes before use and protected from direct light exposure. Two hours after seeding the cells, 100 μl of the mother plate was added to each well and plates remained for 4 h in the anoxic chamber or in cell culture incubator at 37° C. After 4 h, the plate in the anoxic chamber was transferred to normoxia. Visual inspection of all plates (few random wells per plate) under microscope was performed and medium was removed from all plates by aspiration. Cells were washed once with 200 μl PBS (RT) and 200 μl of fresh normoxic complete medium (RT) was added to each well (including all wells without cells). All plates were incubated for 96 hours in normoxia at 37° C. in a standard cell culture incubator.
(§5) For the cell viability assay, the resazurin final working solution was prepared freshly by diluting the resazurin stock solution (0.1 mg/ml) 1/10 in complete medium (RT) of the respective cell lines to obtain a final concentration of 0.01 mg/ml resazurin. After 96 hours incubation in normoxia, a visual inspection of all the plates (few random wells per plate) was performed under the microscope and the medium in each well was removed by aspiration. […]

MDA-MB-231 = experiment: resazurin-based potency assay, normoxia vs anoxia; assay type: cell-based, human; settings: for IC50: Homo sapiens, 4 h exposure then 96 h
Protocol: as §1, §2, §3, §4, §5

NCI-H1650 = experiment: resazurin-based potency assay, normoxia vs anoxia; assay type: cell-based, human; settings: for IC50: Homo sapiens, 4 h exposure then 96 h
Protocol: as §1, §2, §3, §4, §5

NCI-H1975 = experiment: resazurin-based potency assay, normoxia vs anoxia; assay type: cell-based, human; settings: for IC50: Homo sapiens, 4 h exposure then 96 h
Protocol: as §1, §2, §3, §4, §5

PANC-1 = experiment: resazurin-based potency assay, normoxia vs anoxia; assay type: cell-based, human; settings: for IC50: Homo sapiens, 4 h exposure then 96 h
Protocol: as §1, §2, §3, §4, §5

DMS114 = experiment: resazurin-based potency assay, normoxia vs anoxia; assay type: cell-based, human; settings: for IC50: Homo sapiens, 4 h exposure then 96 h
Protocol: as §1, §2, §3, §4, §5

BxPC-3 = experiment: resazurin-based potency assay, normoxia vs anoxia; assay type: cell-based, human; settings: for IC50: Homo sapiens, 4 h exposure then 96 h
Protocol: as §1, §2, §3, §4, §5

HCC1937 = experiment: resazurin-based potency assay, normoxia vs anoxia; assay type: cell-based, human; settings: for IC50: Homo sapiens, 4 h exposure then 96 h
Protocol: as §1, §2, §3, §4, §5

[2] = anoxia (<0.01% O2), read-out: IC50 Average for Cpd.11Ms ANX (SD)
[3] = normoxia (21% O2), read-out: IC50 Average for Cpd.11Ms NRX (SD)

## CCN1CCN(C(=O)c2cc(N(CCBr)CCOS(C)(=O)=O)c(S(C)(=O)=O)cc2[N+](=O)[O-])CC1.CS(=O)(=O)O [Cpd.11 Ms, 4-(5-((2-bromoethyl) (2-((methylsulfonyl)oxy)ethyl)amino)-4-(methylsulfonyl)-2-nitrobenzoyl)-1-ethylpiperazin-1-ium methanesulfonate]
[1]
  stability to sterilizing conditions: sufficiently stable
BT-474; HCR=IC50 normoxia/IC50 anoxia
  Average of HCR (SD): 102.6 (15.2)
BT-474; [2]
  IC50: 14.8 µM
BT-474; [3]
  IC50: > 1500 µM
MDA-MB-231; HCR=IC50 normoxia/IC50 anoxia
  Average of HCR (SD): 10.4 (3.0)
MDA-MB-231; [2]
  IC50: 121 µM
MDA-MB-231; [3]
  IC50: 1250 µM
NCI-H1650; HCR=IC50 normoxia/IC50 anoxia
  Average of HCR (SD): 28.2 (5.4)
NCI-H1650; [2]
  IC50: 45.1 µM
NCI-H1650; [3]
  IC50: 1250 µM
NCI-H1975; HCR=IC50 normoxia/IC50 anoxia
  Average of HCR (SD): 52.6 (36.4)
NCI-H1975; [2]
  IC50: 28.7 µM
NCI-H1975; [3]
  IC50: 1140 µM
PANC-1; HCR=IC50 normoxia/IC50 anoxia
  Average of HCR (SD): 24.0 (1.0)
PANC-1; [2]
  IC50: 43.6 µM
PANC-1; [3]
  IC50: 1040 µM
DMS114; HCR=IC50 normoxia/IC50 anoxia
  Average of HCR (SD): 96.3 (26.2)
DMS114; DMS-114, anoxia (<0.01% O2), read-out: IC50 Average for Cpd.11Ms ANX (SD)
  IC50: 6.2 µM
DMS114; DMS-114, normoxia (21% O2), read-out: IC50 Average for Cpd.11Ms NRX (SD)
  IC50: 564 µM
BxPC-3; HCR=IC50 normoxia/IC50 anoxia
  Average of HCR (SD): 22.7 (4.2)
BxPC-3; [2]
  IC50: 68.2 µM
BxPC-3; [3]
  IC50: > 1500 µM
HCC1937; HCR=IC50 normoxia/IC50 anoxia
  Average of HCR (SD): 28.8 (8.3)
HCC1937; [2]
  IC50: 53.1 µM
HCC1937; [3]
  IC50: 1450 µM
